Values of other authors in patent publication US8617611B2, “Polymeric compositions comprising therapeutic agents in crystalline phases, and methods of forming the same” (Cordis Corporation, priority 2005, dated 2013).

In the case of `COc1ccc(/C=C/C(=O)Nc2ccccc2C(=O)O)cc1OC` [Tranilast], the “solubility in dimethyl sulfoxide (DMSO)” value (DMSO) is given as “soluble” and the “solubility in other solvents such as methylene chloride” value (methylene chloride) is given as “not soluble”.
